This note sets out measurements from patent publication US7678549B2, “Polyphenol inhibition of nucleoside diphosphate kinase-B activity and cancer metastasis” (Research Development Foundation, priority 2001, dated 2010).

The subject of test [1] is guinea pig thoracic aorta. In words: Thoracic aorta in organ bath, measurement of tension. As to conditions: for effect on norepinephrine-contracted aorta: added at peak norepinephrine contraction, endothelium present.
In test [2] the target is T1, tumor cell-secreted nucleoside diphosphate kinase-B (NDPK-B, Nm23-H2) (Homo sapiens, UniProt P22392).
T1 construct: Partially purified tumor cell-secreted nucleoside diphosphate kinase-B was incubated with ADP and GTP; endogenous in cells; host or cells: human tumor cell lines MDA-MB-435s, Calu-1, WiDr and PC-3; concentrated conditioned Krebs buffer
T1 sequence (P22392 whole entry): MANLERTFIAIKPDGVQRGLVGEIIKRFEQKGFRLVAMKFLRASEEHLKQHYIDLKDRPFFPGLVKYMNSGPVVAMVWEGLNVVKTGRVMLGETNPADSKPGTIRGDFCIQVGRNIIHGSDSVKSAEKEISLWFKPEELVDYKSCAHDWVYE
Briefly: NDPK-B kinase activity assay (ADP to ATP with GTP as phosphoryl donor, luciferin-luciferase). As to conditions: for Km: KM of NDPK-B for ADP in presence of the inhibitor; for Inhibition / IC50: inhibition of NDPK-B activity; for Inhibition: Yes/No, conc. tested differs per compound (0.3-10,000 μM); for inhibition of nucleoside diphosphate kinase-B activity (in words): summary of Table 1. Format: biochemical. The protocol: The human tumors MDA-MB-435s (breast ductal carcinoma), Calu-1 (metastatic lung carcinoma), WiDr (colorectal carcinoma), and PC-3 (prostatic carcinoma) were grown to confluence in DMEM with 10% heat-inactivated FBS and antibiotics. Media was replaced with Krebs buffer (25 mM Hepes, pH 7.4) and incubated at 37° C. with gentle rocking for 4 hours. The supernatant was removed and concentrated by spin concentrators. Nucleoside diphosphate kinase activity of the retentate was assayed for activity and stored at −20° C.
Conversion of ADP to ATP, using GTP as the phosphoryl donor, was quantified using the Luciferin-Luciferase ATP assay as we have previously described (9). All necessary steps were taken to eliminate and account for interference between potential nucleoside diphosphate kinase-B inhibitors and the luciferase in the assay.
Partially purified tumor cell-secreted nucleoside diphosphate kinase-B was incubated with ADP and GTP in the presence of varying concentrations of putative nucleoside diphosphate kinase inhibitors or putative metastasis/angiogenesis inhibitors and the resulting ATP generated was measured by chemiluminescence using the luciferin-luciferase assay. […] Molecular modeling studies support these kinetic assumptions (data not shown).

Test [3] has as its system Endothelial cells (CD31+ cells from guinea pig hearts). In words: Angiogenesis assay (endothelial tube formation on EHS matrix). As to conditions: 30 and 100 μM, ~16 hrs, endothelial tubes on EHS matrix. Format: cell-based. The protocol:
Endothelial cells (CD31^+ cells from guinea pig hearts) were plated on a matrix composed of basement proteins from the Engelbreth Holm-Swarm (EHS) mouse tumor. The cells were incubated for 16 hrs in Complete Dulbecco's Modified Eagle Medium (CDMEM) with added tea catechins ellagic acid (EA), epigallocatechin gallate (EGCG), and epicatechin gallate (ECG). Bright field images were taken using a Nikon phase-contrast microscope and a Pulnix digital camera. […] Data are representative of two experiments. Fluorescence activated cell sorting (FACS) was used to select cardiac endothelial cells positive for the PECAM marker CD31. Endothelial cells were plated on a matrix of basement proteins from the Engelbreth Holm-Swarm (EHS) mouse tumor. A complete DME media containing 10% FBS was used to maintain endothelial cultures. Differentiation of the cells into endothelial tubes was monitored in the presence and absence of the compounds of interest.

For test [4], the system named is Human endothelial cells monolayer. Briefly: Tumor cell-induced paracellular holes in endothelial cell monolayers. The settings on record: added at the same time as tumor cells. Format: cell-based. From the text: Additional studies aimed at direct analysis of the ability of polyphenolic catechin gallates to prevent breast cancer cell entry into and exit from vessels has been addressed by examining the ability of tumor cells to induce paracellular passages in endothelial cells monolayers in culture. Human endothelial cells grown to confluence in culture can be examined as a model of capillary intravasation or extravasation as in cases of human breast cancer metastasis in vivo, by examining their ability to form large (>30 μm) holes between cells (paracellular holes). […] Addition of tumor cells on top of the monolayer at concentrations of 1 cancer cell per 10,000 endothelial cells leads to the wide-spread appearance of large paracellular holes in the monolayer within 15 minutes of application of tumor cells. […] The effect is complete at 30 μM epigallocatechin gallate. Careful quantification of the presence of paracellular holes is underway using video imaging.

The subject of the next test is caspase-3. In words: Caspase-3 activity in staurosporine-treated endothelial cells. As to conditions: for caspase-3 activity (DEVDase): near-confluent monolayers of endothelial cells, cyclodextrin as pretreatment before staurosporine; for caspase-3 fluorescent substrate pattern in intact cells: staurosporine for 3 hours, with or without cholesterol-altering agents. It counts as cell-based, guinea pig. How it is done:
Control cells received 0.05% DMSO final as a control for drug vehicle (n=4). Clarified supernatants from detergentsolubilized cells are assayed for DEVDase activity using the colorimetric caspase-3 substrate DEVD-pnitroaniline.
The sequestration of cholesterol from the plasma membrane can disrupt the localization of proteins within caveolae and lipid rafts, which has shown to interrupt signaling pathways.
Using a fluorescent substrate, caspase-3 activity can b e visualized in intact cell preparations.

As to `CSc1nc(N)c2ncn([C@@H]3O[C@H](COP(=O)(O)OP(=O)(O)OP(=O)(O)O)[C@@H](O)[C@H]3O)c2n1` [2-methyl thio-ATP], the “effect on norepinephrine-contracted aorta” value in test [1] is reported as “completely relaxes”.
For the compound `Nc1ncnc2c1nc(Cl)n2[C@@H]1O[C@@H]2COP(=O)(O)O[C@H]2[C@H]1O` [8-Cl-cAMP], in test [2], the Michaelis constant (Km) was 7.5 ± 1.5 µM, the Inhibition result was “Yes” and the “inhibition of nucleoside diphosphate kinase-B activity (in words)” value (“inhibition … (in words)” for short) is recorded as “relatively low potency”. In addition, in test [2] (value in mM), the 50% inhibitory concentration (IC50) was roughly 1 mM.
As for `Cc1cn([C@H]2C[C@H](N=[N+]=[N-])[C@@H](CO)O2)c(=O)[nH]c1=O` [AZT], in test [2], the Inhibition entry is reported as “No”.
In the case of `O=C(O[C@@H]1Cc2c(O)cc(O)cc2O[C@@H]1c1ccc(O)c(O)c1)c1cc(O)c(O)c(O)c1` [ECG, epicatechin gallate], the inhibition of angiogenesis result in test [3] is “dose-dependent inhibition of angiogenesis”. Further, in test [2], the IC50 was 0.17 mM and the Inhibition result was “Yes”.
Turning to `Oc1cc(O)c2c(c1)O[C@H](c1cc(O)c(O)c(O)c1)[C@H](O)C2` [EGC, epigallocatechin], in test [2], the Inhibition result is recorded as “No” and the “inhibition … (in words)” value is listed as “inhibited”.
Consider `O=C(O[C@@H]1Cc2c(O)cc(O)cc2O[C@@H]1c1cc(O)c(O)c(O)c1)c1cc(O)c(O)c(O)c1` [EGCG, epigallocatechin gallate], for which, in test [4] (1 to 100 μM), the “formation of paracellular passages (holes >30 μm) induced by tumor cells” value is recorded as “prevents the formation of the paracellular passages in a dose-dependent fashion”. Moreover, in test [4], the “concentration at which prevention of paracellular passages is complete” value turned out to be 30 µM. Further, the “effect on norepinephrine-contracted aorta” value in test [1] is reported as “further small contraction of the vessel followed by relaxation”. The “effect on norepinephrine-contracted aorta” value in test [1] (listed as epigallocatechin gallate) is listed as “dramatic relaxation”. Also, the “effect on aorta in the absence of endothelium” value in test [1] (norepinephrine-contracted, endothelium absent) is “both contraction and relaxation are lost”. For the same compound, in test [1] (pretreatment with nitric oxide synthase inhibitor L-NAME), the “EGCG-dependent relaxation after pretreatment with L-NAME” value was “blocks epigallocatechin gallate-dependent relaxation”. Further, in test [3], the inhibition of angiogenesis entry was “dose-dependent inhibition of angiogenesis”. Moreover, in test [2], the Km worked out at 9.7 ± 1.8 µM, 0.15 mM corresponded to half-maximal inhibition (IC50), the Inhibition entry is listed as “Yes” and the “inhibition … (in words)” value is listed as “inhibited”.
As for `O=c1oc2c(O)c(O)cc3c(=O)oc4c(O)c(O)cc1c4c23` [Ellagic Acid, hexahydroxydiphenic acid dilactone], the inhibition of angiogenesis result in test [3] is listed as “dose-dependent inhibition of angiogenesis”. For the same compound, in test [2], 0.023 mM corresponded to half-maximal inhibition (IC50), the Inhibition result was “Yes” and the “inhibition … (in words)” value was “highest inhibitory effect”.
For the compound `O=c1c(-c2ccc(O)cc2)coc2cc(O)cc(O)c12` [Genestein, genestein], the Inhibition entry in test [2] is listed as “No”.
On to `Nc1ncnc2c1ncn2[C@@H]1O[C@H](COP(=O)(O)OS(=O)(=O)O)[C@@H](OP(=O)(O)O)[C@H]1O` [PAPS], for which, in test [2], the Km was 7.1 ± 1.4 µM, half-maximal inhibition (IC50) was put at 0.5 mM, the Inhibition result is reported as “Yes” and the “inhibition … (in words)” value was “relatively low potency”.
Take `O=c1c(O)cccc2cc(O)c(O)c(O)c12` [Purpurogallin]: in test [2], half-maximal inhibition (IC50) required 0.6 mM and the Inhibition entry is recorded as “Yes”.
On to `Oc1ccc(C=Cc2cc(O)cc(O)c2)cc1` [Resveratrol, resveratrol], for which the Inhibition result in test [2] was “No”.
Consider `CN[C@@H]1C[C@H]2O[C@@](C)([C@@H]1OC)n1c3ccccc3c3c4c(c5c6ccccc6n2c5c31)C(=O)NC4` [Staurosporine], for which, in the test with caspase-3, the “caspase-3 activity (DEVDase)” value was “induce caspase-3 activity” and the “caspase-3 fluorescent substrate pattern in intact cells” value was “punctate fluorescence”.
For the compound `NC[C@H](O)c1ccc(O)c(O)c1` [norepinephrine], the contraction of aorta result in test [1] (addition to resting vessel) is listed as “contraction that is stable over time”.
On to fillipin III, for which the “caspase-3 fluorescent substrate pattern in intact cells” value in the test on caspase-3 is recorded as “global diffuse fluorescence”.
β methyl-cyclodextrin: in the test with caspase-3, the “caspase-3 activity (DEVDase)” value was “enhances enzymatic activity” and the “caspase-3 fluorescent substrate pattern in intact cells” value was “global diffuse fluorescence”.

The Km is the concentration of substrate that gives half-maximal velocity. As usually defined, the IC50 is the concentration that gives 50% inhibition. The low end stands for greater potency, the high end for weaker potency.
